Data published in patent US11554171B2, “Compounds and methods for the targeted degradation of bromodomain-containing proteins” (Arvinas Operations, Inc., priority 2015, dated 2023).

How the values were obtained:
c-myc in 22RV-1 cells = test: Human c-myc ELISA assay; format: cell-based; details: for Emax / DC50: Homo sapiens; for Emax: 22Rv1, 18 h, read-out: Degradation of BRD4: Maximum inhibition (%) c-Myc ELISA in 22RV1 cells; for DC50: 22Rv1, read-out: Degradation of BRD4: DC50 (uM) c-Myc ELISA in 22RV1 cells
Procedure, shortened: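 c-myc levels measured by ELISA in RIPA lysates of 22RV-1 cells, calibrated with a 333-0 pg/ml standard curve. Lysates came from cells exposed for 18 h to an 8-point, 1:3 dose series starting at 300 nM or 1 μM final in 0.1% DMSO. Suppression potency given as DC50.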

SU-DHL-6 xenografts = test: In vivo SU-DHL-6 xenografts efficacy; details: CB17 SCID mice
Protocol: In vivo SU-DHL-6 Xenografts Efficacy
The 4-5 weeks old male CB17 SCID mice were implanted subcutaneously with 5 million SU-DH-L6 GCB-DLBCL cells (in 200 ul volume of 3:1 matrigel:PBS). After 14 days, mice bearing 180-200 mm^3 tumors were randomized into three groups with ten mice in each group while ensuring identical (±5 mm^3) mean tumor volume in each group. […] Tumor volume was monitored twice per week using calipers and body weights were determined daily during the course of the study.

22RV-1 tumor xenograft = test: In vivo 22Rv1 xenografts efficacy; design: species or system mice; details: 14 day
Protocol: (§1) Mice were housed in pathogen-free animal facilities at New England Life Sciences (NELS, New Haven, Conn.). All experiments were conducted under an IACUC protocol that was approved by the NELS IACUC committee. Male Nu/Nu mice and CB17 SCID mice were obtained at 4-5 weeks age from Charles River Laboratories and implanted subcutaneously with 5×10^6 22Rv1 cells or 5×10^6 VCaP cells in Matrigel (Corning Life Sciences). After 10-14 days, mice bearing >200 mm^3 tumors were randomized into indicated number of groups with ten mice in each group while ensuring identical (±5 mm^3) mean tumor volume in each group. Dosing was carried out through the indicated route and with the indicated schedule for each drug for up to three weeks, depending on the experiment. Mice were sacrificed eight hours after the final dose. Blood was collected, processed to plasma, and flash frozen for PK analysis. Tissues were harvested and flash frozen for further analysis. All PK analysis was carried out at Drumetix Laboratories (Greensboro, N.C.). 2 out of 10 animals in each study arm were randomly excluded in pharmacodynamic analysis, for greater technical ease of running a 20-well protein gel. For PSA ELISA, only samples with at least 25 uL plasma remaining after PK analysis were utilized using the Cell Signaling PathScan® Total PSA/KLK3 Sandwich ELISA Kit #14119 following the manufacturer's protocol. […]

BRD2 = molecular target: T1, BRD2 (Homo sapiens, UniProt P25440); test: Immunoblotting, BRD2 degradation; format: cell-based; details: 22RV-1, VCaP, and LnCaP95 cells (FIG. 1)
T1 construct: endogenous in cells; host or cells: 22Rv1, VCaP, LnCaP95
T1 sequence (P25440 whole entry): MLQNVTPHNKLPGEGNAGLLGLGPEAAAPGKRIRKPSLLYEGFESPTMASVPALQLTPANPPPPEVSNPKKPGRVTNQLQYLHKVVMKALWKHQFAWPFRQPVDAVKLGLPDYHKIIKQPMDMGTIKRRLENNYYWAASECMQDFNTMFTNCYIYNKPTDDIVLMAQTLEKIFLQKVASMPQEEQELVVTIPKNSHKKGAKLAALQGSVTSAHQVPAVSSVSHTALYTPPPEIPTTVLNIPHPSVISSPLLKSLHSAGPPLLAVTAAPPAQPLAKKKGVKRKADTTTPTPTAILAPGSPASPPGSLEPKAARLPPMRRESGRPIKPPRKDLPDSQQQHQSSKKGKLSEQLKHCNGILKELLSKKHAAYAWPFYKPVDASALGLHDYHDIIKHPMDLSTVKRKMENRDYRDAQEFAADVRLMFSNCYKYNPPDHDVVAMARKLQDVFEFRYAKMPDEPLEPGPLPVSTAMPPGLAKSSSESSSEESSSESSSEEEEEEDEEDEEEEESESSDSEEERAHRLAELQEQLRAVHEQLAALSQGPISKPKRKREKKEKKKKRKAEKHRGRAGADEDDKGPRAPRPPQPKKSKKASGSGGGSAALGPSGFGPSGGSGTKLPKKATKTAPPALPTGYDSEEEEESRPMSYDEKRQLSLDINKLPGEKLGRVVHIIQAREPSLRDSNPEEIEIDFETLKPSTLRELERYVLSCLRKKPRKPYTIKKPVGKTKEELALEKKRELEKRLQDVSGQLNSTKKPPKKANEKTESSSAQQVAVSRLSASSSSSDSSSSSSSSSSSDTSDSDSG
Excerpt: (§2) 22Rv1 and VCaP cell lines were purchased from ATCC. LnCap95 cells were a generous gift from Dr. Alan Meeker at The Johns Hopkins University School of Medicine. BRD2 (#5848), BRD4 (#13440), PARP (#9532), c-Myc (#5605) antibodies were purchased from cell signaling. BRD3 (sc-81202) antibody was purchased from Santa Cruz Biotech. Antibodies used for immunohistochemistry were c-MYC (abcam #ab32072) and BRD4 (Bethyl Laboratories #a301-985a50). Actin and Tubulin antibodies were purchased from Sigma.
(§3) Cells were lysed in RIPA buffer (Thermo Fisher Cat #89900) supplemented with protease inhibitors (Pierce™ Protease Inhibitor Tablets, EDTA-free Cat #88266). Lysates were centrifuged at 16,000×g and supernatants were used for SDS-PAGE. Western blotting was carried out following standard protocols.

BRD3 = molecular target: T2, BRD3 (Homo sapiens, UniProt Q15059); test: Immunoblotting, BRD3 degradation; format: cell-based; details: 22RV-1, VCaP, and LnCaP95 cells (FIG. 1)
T2 construct: endogenous in cells; host or cells: 22Rv1, VCaP, LnCaP95
T2 sequence (Q15059 whole entry): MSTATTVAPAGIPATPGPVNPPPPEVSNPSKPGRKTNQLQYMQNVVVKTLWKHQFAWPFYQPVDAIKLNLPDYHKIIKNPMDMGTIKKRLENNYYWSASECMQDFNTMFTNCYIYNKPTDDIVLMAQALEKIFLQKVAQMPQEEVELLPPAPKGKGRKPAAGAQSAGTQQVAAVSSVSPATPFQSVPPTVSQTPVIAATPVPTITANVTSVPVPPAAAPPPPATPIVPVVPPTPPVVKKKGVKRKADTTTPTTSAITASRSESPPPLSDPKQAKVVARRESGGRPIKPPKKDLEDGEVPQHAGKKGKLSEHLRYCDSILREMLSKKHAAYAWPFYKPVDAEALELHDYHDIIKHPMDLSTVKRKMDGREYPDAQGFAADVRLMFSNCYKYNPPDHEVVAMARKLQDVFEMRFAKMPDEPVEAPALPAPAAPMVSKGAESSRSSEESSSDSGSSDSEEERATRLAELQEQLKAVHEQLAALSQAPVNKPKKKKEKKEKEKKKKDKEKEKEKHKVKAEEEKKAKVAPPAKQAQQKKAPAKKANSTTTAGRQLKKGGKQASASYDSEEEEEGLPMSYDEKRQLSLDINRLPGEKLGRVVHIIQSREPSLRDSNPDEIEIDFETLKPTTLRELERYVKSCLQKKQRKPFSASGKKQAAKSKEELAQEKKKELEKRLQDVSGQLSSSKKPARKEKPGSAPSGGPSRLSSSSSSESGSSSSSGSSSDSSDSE
Excerpt: as §2, §3

22RV-1 cells [1] = test: Cell proliferation assay (CellTiter-Glo); format: cell-based; details: FIG. 4
Protocol: 22RV-1 cells are seeded at 5,000 cells/well at a volume of 75 μL/well in RPMI+10% FBS media in 96-well plates and grown overnight at 37 C. Cells are dosed with compounds at 4× concentration diluted in 0.4% DMSO; compounds are serially diluted 1:3 for 10-point dose curve. 25 ul of compounds is added to cells for a final concentration starting at 300 nM-0.3 nM in 0.1% DMSO and incubated for 72 hrs. In a separate plate, 100 ul of 5,000 cells/well are plated in 8 wells, 100 ul of CellTiter-Glo (CellTiter-Glo® Luminescent Cell Viability Assay, Promega #G7573) is added and incubated for 30 minutes, then read on luminometer to assess initial signal for cell growth. After 72 hrs, 100 ul of CellTiter-Glo is added and incubated for 30 minutes, then read on luminometer. Data is analyzed and plotted using GraphPad Prism software.

22RV-1 cells [2] = test: Apoptosis assay (Caspase-Glo 3/7); format: cell-based; details: FIG. 5
Protocol: 22RV-1 cells are seeded at 5,000 cells/well at a volume of 75 μL/well in RPMI+10% FBS media in 96-well plates and grown overnight at 37 C. Cells are dosed with compounds at 4× concentration diluted in 0.4% DMSO; compounds are serially diluted 1:3 for 8-point dose curve. 25 ul of compounds is added to cells for a final concentration starting at 300 nM-0.3 nM in 0.1% DMSO and incubated for 48 hrs. After 48 hrs, 100 ul of Caspase-Glo® 3/7 (Promega Caspase-Glo 3/7 Assay #G8093 is added and incubated for 30 minutes, then read on luminometer. Data is analyzed and plotted using GraphPad Prism software.

BRD4 [3] = molecular target: T3, BRD4 (Homo sapiens, UniProt O60885); test: BRD4 degradation in 22RV-1 tumor xenograft study; format: in vivo; design: from tissue; host or cells: 22Rv1 tumour xenograft harvested from mice; details: 14-day 22RV-1 tumor xenograft study; dosed subcutaneously to mice at 10 mg/kg (qd) for 2 weeks (FIG. 6)
Protocol: As a comparison, OTX-015 was also included (50 mg/kg, p.o., qd). Example 77 was dosed subcutaneously to mice at 10 mg/kg (qd) for 2 weeks.
as §1, with “gel.” for “gel. For PSA ELISA, only samples with at least 25 uL plasma remaining after PK analysis were utilized using the Cell Signaling PathScan® Total PSA/KLK3 Sandwich ELISA Kit #14119 following the manufacturer's protocol.”

BRD4 [4] = molecular target: T3, BRD4; test: Immunoblotting, BRD4 degradation; format: cell-based; design: compounds which function to recruit endogenous proteins, e.g., BRd4, to E3 Ubiquitin Ligase for ubiquitination and degradation; endogenous in cells; host or cells: 22Rv1, VCaP, LnCaP95
Excerpt: as §2, §3

DC50 (c-myc in 22RV-1 cells) | Compound | Emax (c-myc in 22RV-1 cells) | other results
– | Cc1sc2c(c1C)C(c1ccc(Cl)cc1)=N[C@@H](CC(=O)Nc1ccc(O)cc1)c1nnc(C)n1-2 [OTX-015, reference compound] | – | tumor response in 22RV-1 mice tumor xenograft model, comparator (22RV-1 tumor xenograft; OTX-015 as comparison (FIG. 7)): tumor growth inhibition
< 0.01 µM | Cc1ncsc1-c1ccc([C@H](C)NC(=O)[C@@H]2C[C@@H](O)CN2C(=O)[C@@H](NC(=O)COCCCOCCNC(=O)C[C@@H]2N=C(c3ccc(Cl)cc3)c3c(sc(C)c3C)-n3c(C)nnc32)C(C)(C)C)cc1 [Example 77, (2S, 4R)-1-[(2S)-2-{2-[3-(2-{2-[(9S)-7-(4-chlorophenyl)-4,5,13-trimethyl-3-thia-1,8,11,12-tetraazatricyclo[8.3.0.0^2,^6]trideca-2(6),4,7,10,12-pentaen-9-yl]acetamido}ethoxy)propoxy]acetamido}-3,3-dimethylbutanoyl]-4-hydroxy-N-[(1S)-1-[4-(4-methyl-1,3-thiazol-5-yl)phenyl]ethyl]pyrrolidine-2-carboxamide] | 100% | suppression of cellular c-MYC levels measured by ELISA (c-myc in 22RV-1 cells; FIG. 3): suppression; degradation of BRD2 (BRD2): degradation; degradation of BRD3 (BRD3): degradation; proliferation inhibition of prostate cancer cell growth (22RV-1 cells [1]): proliferation inhibition; caspase activation in prostate cancer cell lines (22RV-1 cells [2]): caspase activation; tumor response in 22RV-1 mice tumor xenograft model (22RV-1 tumor xenograft; subcutaneous dosing (FIG. 7)): tumor regression; degradation of BRD4 in tumor xenograft (BRD4 [3]): degradation of BRD4; degradation of BRD4 (BRD4 [4]; 22RV-1, VCaP, and LnCaP95 cells (FIG. 1)): degradation; BRD4 degradation after pretreatment with an excess of VHL ligand ARV-056 (BRD4 [4]; FIG. 2): blocked; BRD4 degradation in presence of proteasome inhibitor carfilzomib (BRD4 [4]; FIG. 2): blocked
– | Cc1sc2c(c1C)C(c1ccc(Cl)cc1)=N[C@@H](CC(=O)Nc1ccc(O)cc1)c1nnc(C)n1-2 [OTX015, reference compound] | – | in vivo growth of SU-DHL-6 xenografts (SU-DHL-6 xenografts; daily po administration of 25MPK (FIG. 10)): no effect
0.01 to 0.1 µM | Cc1sc2c(c1C)C(c1ccc(Cl)cc1)=N[C@@H](CC(=O)N[C@H]1C[C@H](Oc3ccc(CC(=O)N[C@H](C(=O)N4C[C@H](O)C[C@H]4C(=O)N[C@@H](C)c4ccc(-n5ccnc5C)cc4)C(C)(C)C)cc3)C1)c1nnc(C)n1-2 [Example 272] | 95.9% | –
0.01 to 0.1 µM | Cc1ncsc1-c1ccc([C@H](C)NC(=O)[C@@H]2C[C@@H](O)CN2C(=O)[C@@H](NC(=O)CN2CCN(C3CC4(C3)CN(C(=O)C[C@@H]3N=C(c5ccc(Cl)cc5)c5c(sc(C)c5C)-n5c(C)nnc53)C4)[C@H](C)C2)C(C)(C)C)cc1 [Example 355] | 100% | –
0.1 to 1 µM | Cc1sc2c(c1C)C(c1ccc(Cl)cc1)=N[C@@H](CC(=O)N[C@H]1C[C@@H](Oc3ccc(OCC(=O)N[C@H](C(=O)N4C[C@H](O)C[C@H]4C(=O)N[C@@H](C)c4ccc(-n5ccnc5C)cc4)C(C)(C)C)cn3)C1)c1nnc(C)n1-2 [Example 259] | 65.7% | –
0.01 to 0.1 µM | Cc1ncsc1-c1ccc([C@H](C)NC(=O)[C@@H]2C[C@@H](O)CN2C(=O)[C@@H](NC(=O)CN2CCN(C3CC4(C3)CN(C(=O)C[C@@H]3N=C(c5ccc(Cl)cc5)c5c(sc(C)c5C)-n5c(C)nnc53)C4)[C@@H](C)C2)C(C)(C)C)cc1 [Example 354, (2S,4R)-1-[(2S)-2-{2-[(3S)-4-(2-{2-[(9S)-7-(4-chlorophenyl)-4,5,13-trimethyl-3-thia-1,8,11,12-tetraazatricyclo[8.3.0.0^2,^6]trideca-2(6),4,7,10,12-pentaen-9-yl]acetyl}-2-azaspiro[3.3]heptan-6-yl)-3-methyl-piperazin-1-yl]acetamido}-3,3-dimethylbutanoyl]-4-hydroxy-N-[(1S)-1-[4-(4-methyl-1,3-thiazol-5-yl)phenyl]ethyl]pyrrolidine-2-carboxamide] | 100% | –
< 0.01 µM | Cc1ncsc1-c1ccc([C@H](C)NC(=O)[C@@H]2C[C@@H](OC(=O)CCN)CN2C(=O)[C@@H](NC(=O)c2cc3cc(O[C@H]4C[C@@H](NC(=O)C[C@@H]5N=C(c6ccc(Cl)cc6)c6c(sc(C)c6C)-n6c(C)nnc65)C4)ccc3o2)C(C)(C)C)cc1 [Example 339] | 97% | –

Compound | DC50 (c-myc in 22RV-1 cells) | Emax (c-myc in 22RV-1 cells) | other results
Cc1ncsc1-c1ccc([C@H](C)NC(=O)[C@@H]2C[C@@H](O)CN2C(=O)[C@@H](NC(=O)c2cc3cc(O[C@H]4C[C@@H](NC(=O)C[C@@H]5N=C(c6ccc(Cl)cc6)c6c(sc(C)c6C)-n6c(C)nnc65)C4)ccc3o2)C(C)(C)C)cc1 [Example 195, (2S,4R)-1-[(2S)-3,3-dimethyl-2-({5-[(1,3cis)-3-{2-[(9S)-7-(4-chlorophenyl)-4,5,13-trimethyl-3-thia-1,8,11,12-tetraazatricyclo[8.3.0.0^2,^6]trideca-2(6),4,7,10,12-pentaen-9-yl]acetamido}cyclobutoxy]-1-benzofuran-2-yl}formamido)butanoyl]-4-hydroxy-N-[(1S)-1-[4-(4-methyl-1,3-thiazol-5-yl)phenyl]ethyl]pyrrolidine-2-carboxamide] | < 0.01 µM | 100% | in vivo growth of SU-DHL-6 xenografts (SU-DHL-6 xenografts; 6MPK Q3D iv dosing, n=10 (FIG. 10)): tumor regression
